This experiment addresses human GPR40 receptor (Homo sapiens, UniProt O14842). The experiment is described as follows: IP1 accumulation measurements using the IPOne assay system. Format: cell-based. The settings on record: IP1 accumulation (IPOne HTRF), 1 hour stimulation; 1321N1 cells stably expressing human GPR40; read-out: EC50 values on GPR40 determined as described in (B). The method, then:
(B) IP1 accumulation measurements using the IPOne assay system—1321N1 cells stably expressing human GPR40 receptor (Euroscreen, Belgium) were seeded 24 h before the assay in black clear-bottom collagen-coated 384-well plates in culture medium containing 10% FCS, 1% Na-Pyruvate and 400 μg/mL G418. IP1 is assayed according to the Manufacturer's description (Cisbio Bioassays, France). In brief, the assay is started by substitution of the culture medium by stimulation buffer (Hepes 10 mM, CaCl2 1 mM, MgCl2 0.5 mM, KCl 4.2 mM, NaCl 146 mM and glucose 5.5 mM, pH 7.4) without LiCl. Cells are stimulated for 1 hour at 37°, 10% CO2 by addition of the compounds that were diluted in stimulation buffer containing LiCl yielding a final LiCl concentration of 50 mM. Assays are stopped by adding HTRF-conjugates (IP1-d2 and Anti-IP1 cryptate Tb) and lysis buffer, provided by the manufacturer. After an incubation time of 1 hour at room temperature plates are measured using an EnVision™, Perkin Elmer.
A general note: In TR-FRET formats the signal depends on donor and acceptor labels being close together.

EC50 data for 32 compounds are collected here from patent US20120302566A1, “INDANYLOXYDIHYDROBENZOFURANYLACETIC ACIDS” (BOEHRINGER INGELHEIM INTERNATIONAL GMBH, priority 2010, published 2012).

pEC50: −log10 of the molar value.

Sequence of human GPR40 receptor (O14842 whole entry): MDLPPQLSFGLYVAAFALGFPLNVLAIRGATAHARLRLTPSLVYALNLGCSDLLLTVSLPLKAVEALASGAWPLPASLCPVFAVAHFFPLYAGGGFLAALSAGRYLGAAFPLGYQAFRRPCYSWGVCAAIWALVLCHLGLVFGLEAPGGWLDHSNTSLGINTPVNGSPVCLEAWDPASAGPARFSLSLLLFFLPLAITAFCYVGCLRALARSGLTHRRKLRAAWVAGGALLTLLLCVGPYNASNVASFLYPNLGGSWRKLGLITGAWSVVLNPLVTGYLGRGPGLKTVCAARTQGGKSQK

A word on the pEC50: it is the negative decadic logarithm of the EC50, by convention in mol/L. Take `Cc1cccnc1-c1cccc2c1CC[C@H]2Oc1ccc2c(c1)OC[C@H]2CC(=O)O` [Example 58, {(S)-6-[(R)-4-(3-Methyl-pyridin-2-yl)-indan-1-yloxy]-2,3-dihydro-benzofuran-3-yl}-acetic acid]: the pEC50 was 6.27. To `CC(O)(c1cccc2c1CC[C@H]2Oc1ccc2c(c1)OC[C@H]2CC(=O)O)C(F)(F)F` (stereo partly drawn) [Example 89, {(S)-6-[(R)-4-(2,2,2-Trifluoro-1-hydroxy-1-methyl-ethyl)-indan-1-yloxy]-2,3-dihydro-benzofuran-3-yl}-acetic acid] belongs 6.37; to `Cc1ccc2c(c1C(F)(F)F)CC[C@H]2Oc1ccc2c(c1)OC[C@H]2CC(=O)O` [Example 36, {(S)-6-[(R)-5-Methyl-4-trifluoromethyl-indan-1-yloxy]-2,3-dihydro-benzofuran-3-yl}-acetic acid], 7.72; to `CC(C)c1ccccc1-c1cccc2c1CC[C@H]2Oc1ccc2c(c1)OC[C@H]2CC(=O)O` [Example 35, {(S)-6-[(R)-4-(2-Isopropyl-phenyl)-indan-1-yloxy]-2,3-dihydro-benzofuran-3-yl}-acetic acid], 8.40. To `CC1=C(c2cccc3c2CC[C@H]3Oc2ccc3c(c2)OC[C@H]3CC(=O)O)C(C)(C)CCC1` [Example 48, {(S)-6-[(R)-4-(2,6,6-Trimethyl-cyclohex-1-enyl)-indan-1-yloxy]-2,3-dihydro-benzofuran-3-yl}-acetic acid] belongs 7.80; to `COCC(F)(F)c1cccc2c1CC[C@H]2Oc1ccc2c(c1)OC[C@H]2CC(=O)O` [Example 79, {(S)-6-[(R)-4-(1,1-Difluoro-2-methoxy-ethyl)-indan-1-yloxy]-2,3-dihydro-benzofuran-3-yl}-acetic acid], 6.54. Next, `Cc1ccc(O)cc1-c1cccc2c1CC[C@H]2Oc1ccc2c(c1)OC[C@H]2CC(=O)O` [Example 72, {(S)-6-[(R)-4-(5-Hydroxy-2-methyl-phenyl)-indan-1-yloxy]-2,3-dihydro-benzofuran-3-yl}-acetic acid]: 7.01. Consider `Cc1cccc(Cl)c1-c1cccc2c1CC[C@H]2Oc1ccc2c(c1)OC[C@H]2CC(=O)O` [Example 90, {(S)-6-[(R)-4-(2-Chloro-6-methyl-phenyl)-indan-1-yloxy]-2,3-dihydro-benzofuran-3-yl}-acetic acid], for which the pEC50 was 7.44. Next, `Cc1cccc(C)c1-c1ccc2c(c1)[C@@H](Oc1ccc3c(c1)OC[C@H]3CC(=O)O)CC2` [Example 53, {(S)-6-[(S)-6-(2,6-Dimethyl-phenyl)-indan-1-yloxy]-2,3-dihydro-benzofuran-3-yl}-acetic acid]: 6.68; `O=C(O)C[C@@H]1COc2cc(O[C@@H]3CCc4cc(Cl)ccc43)ccc21` [Example 21, {(S)-6-[(R)-5-Chloro-indan-1-yloxy]-2,3-dihydro-benzofuran-3-yl}-acetic acid]: 7.27; `O=C(O)C[C@@H]1COc2cc(O[C@@H]3CCc4c3ccc(F)c4Cl)ccc21` [Example 44, {(S)-6-[(R)-4-Chloro-5-fluoro-indan-1-yloxy]-2,3-dihydro-benzofuran-3-yl}-acetic acid]: 7.60.

For the compound `CC1(C)CCCC=C1c1cccc2c1CC[C@H]2Oc1ccc2c(c1)OC[C@H]2CC(=O)O` [Example 70, {(S)-6-[(R)-4-(6,6-Dimethyl-cyclohex-1-enyl)-indan-1-yloxy]-2,3-dihydro-benzofuran-3-yl}-acetic acid], the pEC50 was 8.10. Take `Cc1cccc(C)c1-c1cccc2c1CC[C@H]2Oc1ccc2c(c1)OC[C@H]2CC(=O)O` [Example 33, {(S)-6-[(R)-4-(2,6-Dimethyl-phenyl)-indan-1-yloxy]-2,3-dihydro-benzofuran-3-yl}-acetic acid]: the pEC50 is 8.40.

With `O=C(O)C[C@@H]1COc2cc(O[C@@H]3CCc4c3ccc(C(F)(F)F)c4Cl)ccc21` [Example 98, {(S)-6-[(R)-4-Chloro-5-trifluoromethyl-indan-1-yloxy]-2,3-dihydro-benzofuran-3-yl}-acetic acid], the pEC50 is 7.34. Turning to `O=C(O)C[C@@H]1COc2cc(O[C@@H]3CCc4c(C5=CCCC56CCOCC6)cccc43)ccc21` [Example 47, {(S)-6-[(R)-4-(8-Oxa-spiro[4.5]dec-1-en-1-yl)-indan-1-yloxy]-2,3-dihydro-benzofuran-3-yl}-acetic acid], the pEC50 is 7.15. Next, `Cc1cccc(C)c1-c1ccc2c(c1)CC[C@H]2Oc1ccc2c(c1)OC[C@H]2CC(=O)O` [Example 52, {(S)-6-[(R)-5-(2,6-Dimethyl-phenyl)-indan-1-yloxy]-2,3-dihydro-benzofuran-3-yl}-acetic acid]: 6.95; `Cc1cccc2cccc(-c3cccc4c3CC[C@H]4Oc3ccc4c(c3)OC[C@H]4CC(=O)O)c12` [Example 92, {(S)-6-[(R)-4-(8-Methyl-naphthalen-1-yl)-indan-1-yloxy]-2,3-dihydro-benzofuran-3-yl}-acetic acid]: 8.15. Next, `CO[C@@H](c1cccc2c1CC[C@H]2Oc1ccc2c(c1)OC[C@H]2CC(=O)O)C(C)(C)C` (single isomer, unassigned) [Example 28, {(S)-6-[(R)-4-((R)*-1-Methoxy-2,2-dimethyl-propyl)-indan-1-yloxy]-2,3-dihydro-benzofuran-3-yl}-acetic acid]: 7.60. Next, `COC(c1cccc2c1CC[C@H]2Oc1ccc2c(c1)OC[C@H]2CC(=O)O)C(C)(C)C` (mixture of isomers) [Example 27, {(S)-6-[(R)-4-(1-Methoxy-2,2-dimethyl-propyl)-indan-1-yloxy]-2,3-dihydro-benzofuran-3-yl}-acetic acid]: 7.64; `O=C(O)C[C@@H]1COc2cc(O[C@@H]3CCc4c(C(F)(F)F)ccc(F)c43)ccc21` [Example 24, {(S)-6-[(R)-7-Fluoro-4-trifluoromethyl-indan-1-yloxy]-2,3-dihydro-benzofuran-3-yl}-acetic acid]: 7.46; `CC1(C)CCC[C@@H]1c1cccc2c1CC[C@H]2Oc1ccc2c(c1)OC[C@H]2CC(=O)O` (single isomer, unassigned) [Example 75]: 7.41. As to `Cc1ncnc(C)c1-c1cccc2c1CC[C@H]2Oc1ccc2c(c1)OC[C@H]2CC(=O)O` [Example 86, {(S)-6-[(R)-4-(4,6-Dimethyl-pyrimidin-5-yl)-indan-1-yloxy]-2,3-dihydro-benzofuran-3-yl}-acetic acid], the pEC50 is 6.38. Turning to `COc1cc(-c2cccc3c2CC[C@H]3Oc2ccc3c(c2)OC[C@H]3CC(=O)O)c(F)cn1` [Example 68, {(S)-6-[(R)-4-(5-Fluoro-2-methoxy-pyridin-4-yl)-indan-1-yloxy]-2,3-dihydro-benzofuran-3-yl}-acetic acid], the negative logarithm of the EC50 (pEC50) was 6.44.

Take `Cc1ccc2ccccc2c1-c1cccc2c1CC[C@H]2Oc1ccc2c(c1)OC[C@H]2CC(=O)O` [Example 80, {(S)-6-[(R)-4-(2-Methyl-naphthalen-1-yl)-indan-1-yloxy]-2,3-dihydro-benzofuran-3-yl}-acetic acid]: the pEC50 is 7.70. To `CC(C)c1ccccc1-c1ccc2c(c1)CC[C@H]2Oc1ccc2c(c1)OC[C@H]2CC(=O)O` [Example 54, {(S)-6-[(R)-5-(2-Isopropyl-phenyl)-indan-1-yloxy]-2,3-dihydro-benzofuran-3-yl}-acetic acid] belongs 6.59. To `CC(O)(c1cccc2c1CC[C@H]2Oc1ccc2c(c1)OC[C@H]2CC(=O)O)C1CCOCC1` (stereo partly drawn) [Example 81, ((S)-6-{(R)-4-[1-Hydroxy-1-(tetrahydro-pyran-4-yl)-ethyl]-indan-1-yloxy}-2,3-dihydro-benzofuran-3-yl)-acetic acid] belongs 5.81. To `CC1(c2cccc3c2CC[C@H]3Oc2ccc3c(c2)OC[C@H]3CC(=O)O)CC1` [Example 87, {(S)-6-[(R)-4-(1-Methyl-cyclopropyl)-indan-1-yloxy]-2,3-dihydro-benzofuran-3-yl}-acetic acid] belongs 7.19; to `O=C(O)C[C@@H]1COc2cc(O[C@@H]3CCc4c(-c5ccccc5C(F)(F)C(F)(F)F)cccc43)ccc21` [Example 94, {(S)-6-[(R)-4-(2-Pentafluoroethyl-phenyl)-indan-1-yloxy]-2,3-dihydro-benzofuran-3-yl}-acetic acid], 8.15; to `O=C(O)C[C@@H]1COc2cc(O[C@@H]3CCc4c(-c5c(Cl)cccc5Cl)cccc43)ccc21` [Example 88, {(S)-6-[(R)-4-(2,6-Dichloro-phenyl)-indan-1-yloxy]-2,3-dihydro-benzofuran-3-yl}-acetic acid], 7.55.

As to `O=C(O)C[C@@H]1COc2cc(O[C@@H]3CCc4c(-c5cccnc5C(F)(F)F)cccc43)ccc21` [Example 73, {(S)-6-[(R)-4-(2-Trifluoromethyl-pyridin-3-yl)-indan-1-yloxy]-2,3-dihydro-benzofuran-3-yl}-acetic acid], the pEC50 was 5.56. As for `CC(C)(C)Cc1cccc2c1CC[C@H]2Oc1ccc2c(c1)OC[C@H]2CC(=O)O` [Example 34, {(S)-6-[(R)-4-(2,2-Dimethyl-propyl)-indan-1-yloxy]-2,3-dihydro-benzofuran-3-yl}-acetic acid], the pEC50 was 7.89. To `O=C(O)C[C@@H]1COc2cc(O[C@@H]3CCc4ccc(C(F)(F)F)cc43)ccc21` [Example 19, {(S)-6-[(R)-6-Trifluoromethyl-indan-1-yloxy]-2,3-dihydro-benzofuran-3-yl}-acetic acid] belongs 5.29.
